The source of these data is patent publication US7872036B2, “3-triazolylphenyl sulfide derivative and insecticide, miticide and nematicide containing it as an active ingredient” (Kumiai Chemical Industry Co., Ltd., priority 2004, dated 2011).

Test [1] has as its system two-spotted spider mites. The test can be described thus: Miticidal test on two-spotted spider mites (by dipping). The class given is in vivo, Tetranychus urticae. Further details: scale not given here. Particulars: dipping of soybean seedlings, active ingredient 500 ppm, 25° C., 13 days. The method, then:
Wettable powders were prepared in accordance with Formulation Example 2 and diluted with water to an active ingredient concentration of 500 ppm. Soybean seedlings which had been inoculated with imago two-spotted spider mites were dipped in the resulting solutions and dried in air. The treated seedlings were placed in a thermostatic chamber at 25° C. for 13 days, and the mite survivors were counted for calculation of the miticidal value by using Equation 2. The test was carried out by one series system.

Test [2] has as its system two-spotted spider mites. The test is described as follows: Miticidal test on two-spotted spider mites (by soil drenching). The class given is in vivo, Tetranychus urticae. Further details: scale not given here. As to conditions: active ingredient 100 ppm, 5 ml per 100 g soil, 25° C., 13 days. On the procedure:
Wettable powders were prepared in accordance with Formulation Example 2 and diluted with water to an active ingredient concentration of 100 ppm. 100 g of the soil in cups with soybean seedlings which had been inoculated with imago two-spotted spider mites were drenched with 5 ml of the resulting solutions. The treated seedlings were placed in a […] chamber at 25° C. for 13 days, and the mite survivors were counted for calculation of the miticidal value by using Equation 2.

For the next test, the system named is brown planthoppers. The test is described as follows: Insecticidal test on brown planthoppers. The class given is in vivo, Nilaparvata lugens. Particulars: active ingredient 500 ppm, germinating rice immersed, 4th-instar larvae, 25° C., 6 days.
Test [3] has as its system southern root-knot nematodes. The test is described as follows: Nemastatic test on southern root-knot nematodes. It is filed as in vivo, Meloidogyne sp. Particulars: diluted solution 20 ppm mixed 1:1 with suspension of second stage larvae, 25° C., 5 days. The method, then: Compounds of the present invention (5 parts) and Tween 20 (tradename for polyoxyethylene sorbitan monolaurate) (1 part) as a spreader were dissolved n N,N-dimethylformamide (94 parts) to prepare 5% emulsifiable concentrates of the compounds of the present invention. Distilled water was added to the emulsifiable concentrates to prepare diluted solutions having a concentration of the compounds of the present invention of 20 ppm. 0.5 ml of the diluted solutions and 0.5 ml of water suspensions containing 100 second stage larvae of southern root-knot nematodes were mixed, and the mixture were placed in a thermostatic chamber at 25° C. for 5 days, and the survivors were counted for calculation of the nemastatic degree by using Equation 3. The test was carried out by two series system.

As to `CNc1nc(SC(F)(F)C(F)(F)F)nn1-c1cc([S+]([O-])CC(F)(F)F)c(C)cc1F` (stereo not shown) [Compound 102], the Miticidal value with two-spotted spider mites [1] and with two-spotted spider mites [2] was 100 each time. In the test with brown planthoppers, the “Insecticidal degree (%)” value was found to be 100%. Also, the “Nemastatic degree (%)” value in test [3] is reported as 98%.
